# Measurements from patent publication US20190106460A1, “BINDING INHIBITORS OF THE BETA. TRANSDUCIN REPEAT-CONTAINING PROTEIN” (priority 2011, published 2019).
# Where two headings read alike, the source gives them in different places. Starred links: 1 amine or outer side, 2 acyl side, 3 side chain; linkers in the order of their positions; H or OH if unused. Non-standard residues stand in square brackets, D forms with d. Residues, ends and D or L forms follow the SMILES beside them. *: point of attachment. Phe(4-NO2) = N[C@@H](Cc1ccc([N+](=O)[O-])cc1)C(=O)O; Phe(3-F) = N[C@@H](Cc1cccc(F)c1)C(=O)O; Phe(4-F) = N[C@@H](Cc1ccc(F)cc1)C(=O)O; Phe(2-F) = N[C@@H](Cc1ccccc1F)C(=O)O; pS = N[C@@H](COP(=O)(O)O)C(=O)O; Suc = O=C(CCC(=O)[*:2])[*:1]; Ethoxycarbonyl = CCOC(=O)*
# Legend:
# βTrCP [1] = biological target: βTrCP (Homo sapiens, UniProt Q9Y297); test: Fluorescence polarisation (FP) binding assay with fluorescein-tagged IκB peptide
# Target sequence in this assay (P63208 whole entry partner, one chain of several): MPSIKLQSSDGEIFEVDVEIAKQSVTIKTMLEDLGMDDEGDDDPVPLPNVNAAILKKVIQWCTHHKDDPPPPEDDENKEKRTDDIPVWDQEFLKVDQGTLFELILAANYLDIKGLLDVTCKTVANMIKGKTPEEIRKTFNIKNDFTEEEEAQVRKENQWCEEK
# βTrCP/Skp1 = βTrCP/Skp1 (Homo sapiens, UniProt Q9Y297); test: Surface plasmon resonance (SPR), Biacore T200; assay type: binding; conditions: apparent KD averaged over both surfaces
# Experimental: Surface Plasmon Resonance (SPR)
# Experiments were carried out using the Biacore T200 SPR detection system. This system exploits the phenomenon of surface plasmon resonance (SPR) to monitor interactions between molecules. The system involves the attachment of one interacting partner to a surface (an appropriate sensor chip) while the other interacting partner is passed over it in solution. The binding of molecules to the surface generates an SPR response (measured in response units (RU)) that is proportional to the mass and amount of the biomolecule (in this case βTrCP/Skp1) bound to the chip. The relative responses obtained are dependent on the concentration of the molecule binding. At RUmaximum, the attached protein's binding sites are saturated. Binding events can be followed in real time and a range of interaction characteristics can be determined including kinetics, specificity of interactions and the concentration of specific molecules in a sample.
# As βTrCP was His tagged, an NTA sensor chip was used. This sensor chip has a dextran surface matrix with immobilized nitrilotriacetic acid (NTA) which provides a means of capturing polyHis-tagged proteins through Nickel chelation. It was hoped that addition of Ni^+ would orient the protein in a specific (and hopefully active) manner as it is covalently immobilised via amine coupling. Addition of EDC:NHS (N-ethyl-N′-(3-[…])-carbodiimide:N-hydroxysuccinimide) converts carboxyl groups on the dextran sensor chip surface to succinamide esters which readily form covalent bonds with primary amines. Each chip contains four flow cells (each a separate surface) which means that compounds/peptides can be passed over different forms of βTrCP and a reference surface simultaneously. If binding to βTrCP is occurring, responses should be the same (accounting for differences in density of surface etc) on each surface.
# Two different βTrCP protein complexes were immobilised on to an NTA biacore sensor chip. One included the GSTSkp1 fusion (HisβTrCP/GSTSkp1) while the other was immobilised after GST Removal by Thrombin (HisβTrCP/Skp1). To ensure that the GST moiety is completely removed from Skp1, βTrCP/GSTSkp1 was incubated with thrombin ((10units/mg protein) for at least 16 hours at room temperature in 10mMHEPES 150mMNaCl pH7.4+2 mM CaCl2. Thrombin and GST were removed from βTrCP/Skp1 by buffer exchange through a 50 KDa MWCO vivaspin concentrator.
# Protein Immobilisation Procedure for NTA Chip
# Ni+ (500 μM NiCl) loaded on to surface at a flow rate of 5 μl/min for 60s. EDC/NHS (activates dextran carboxylates) loaded at a flow rate of 5 μl/min for 240s. Protein ([protein]=100 nM to 1 μM) loaded at a flow rate of 10 μl/min for 180s. Strip solution (350 μM EDTA/1M NaCl) added at flow rate of 10 μl/min for 30s (to chelate excess Ni+ and remove non-covalently bound protein e.g. protein oligomers). Quench solution (ethanolamine) at flow rate of 5 μl/min for 240s (to deactivate surface molecules on the chip that have not crosslinked protein). The immobilisation buffer used was 10 mM HEPES pH 7.4, 150 mM NaCl,
# GST Capture Procedure (for Immobilisation Via GSTSkp1)
# EDC:NHS was injected at 5 μl/min for 4 min to activate surface for amine coupling (this converts carboxyl groups on the surface of the chip to succinamide esters that react with primary amines)
# Anti-GST (60 μg/ml). was loaded at 10 μl/min for 4 min resulting in an increase in response units of 6730 (Biacore manual states it should result in ˜7000)
# Ethanolamine was injected at 5 μl/min for 5 min to deactivate remaining unreacted esters at surface (quenching).
# Injection of a low concentration of purified GST (from kit) was injected for 3 mins at 5 μl/min before running a regeneration cycle with glycine pH2.0 that disrupts the antibody-GST interaction. […]
# βTrCP [2] = biological target: T1, βTrCP (Homo sapiens, UniProt Q9Y297); test: Biotin pull down assay with biotinylated IκB peptide; assay type: binding; conditions: for Biotin Pulldown Assay 10 μM: 10 μM compound; for Biotin Pulldown Assay 100 μM: 100 μM compound
# T1 sequence (Q9Y297 1-605): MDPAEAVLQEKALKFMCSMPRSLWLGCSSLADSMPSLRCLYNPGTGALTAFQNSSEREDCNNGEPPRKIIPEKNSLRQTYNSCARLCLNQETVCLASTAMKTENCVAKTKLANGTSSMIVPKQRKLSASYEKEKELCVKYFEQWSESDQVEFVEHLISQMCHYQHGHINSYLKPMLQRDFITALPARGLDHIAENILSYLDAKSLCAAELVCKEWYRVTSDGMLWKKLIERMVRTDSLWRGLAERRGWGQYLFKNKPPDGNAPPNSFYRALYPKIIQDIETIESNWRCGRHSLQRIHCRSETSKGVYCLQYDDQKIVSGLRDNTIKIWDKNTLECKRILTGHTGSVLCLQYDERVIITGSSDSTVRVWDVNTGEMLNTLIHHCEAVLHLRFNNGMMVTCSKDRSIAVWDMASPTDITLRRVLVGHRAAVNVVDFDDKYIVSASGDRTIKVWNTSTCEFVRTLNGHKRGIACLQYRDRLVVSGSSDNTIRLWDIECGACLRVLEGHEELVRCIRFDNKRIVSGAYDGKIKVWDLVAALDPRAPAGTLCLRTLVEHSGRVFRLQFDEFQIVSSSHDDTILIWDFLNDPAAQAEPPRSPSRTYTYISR
# β-TrCP1/Skp1 = β-TrCP1/Skp1 (Homo sapiens, UniProt Q9Y297); test: βTrCP ubiquitination assay (Ub assay); assay type: biochemical; conditions: for Ub Assay 10 μM: 10 μM compound; for Ub Assay 100 μM: 100 μM compound
# Experimental: (§1) βTrCP Ubiquitination Assay and Selectivity Assays
# 0.5 μM Peptide substrate (biotin)
# (§2) Master mixes were prepared in a 50 mM Herpes buffer at pH 7.5, in 75 mM NaCl and 1 mM DTT without Mg or ATP and peptides were added to a final concentration of 100 μM. Reactions were incubated at room temperature for 30 minutes and then Mg/ATP was added to the mix. Reactions were further incubated for an additional 60 minutes and then stopped by adding SDS gel loading buffer and boiled for 5 minutes. Reactions were run on SDS-PAGE (10%) and transferred to nitrocellulose membranes and probed with HRP-Streptavidin.
# Candidate compounds were tested in duplicate at both 10 and 100 μM against the E3 ligase cascades βTrCP(IκBα) and βTrCP(β-catenin). The E3 assays were carried out according to the component concentrations detailed in Table 9. In each case the E2 was HA,6His-UbcH3-(hu,FL), the E1 was 6His-UBE1-(hu,FL) and the ubiquitin (Sigma U6253) was biotinylated at a 5:1 ratio. Substrate phosphorylation was performed in the absence of compound; consequently any observed signal modulation should not reflect inhibition of the up-stream kinase reaction. All other steps (E1, E2 and substrate ubiquitination) were carried out in the presence of compound. The stopped reaction mix (10 μl) was added to an ECL plate loaded with anti c-Myc ( 1/500 Dilution, Millipore 05-724) and blocked with 5% BSA. Binding was allowed to proceed for 1 hour at RT before a wash step (3 40 μl PBST washes). Detection was achieved by binding SA-Ru TAG at 1 μg/ml (1 hour @ RT, 3 40 μl PBST washes) before reading on an MSD Sector Imager 6000.
# Assays were performed as described above
# Skp2 = Skp2 (Homo sapiens, UniProt Q13309); test: Selectivity assay vs other E3s: Skp2; assay type: biochemical; conditions: for inhibition at 100 µM: value in brackets, read-out: % Inhibition Skp2 @ (100 μM); for inhibition at 10 µM: read-out: % Inhibition Skp2 @ 10 μM
# Experimental: as §1, §2
# (§3) Candidate compounds were tested for inhibition of Fbw7 and Skp2 as described above.
# FBW7/Skp1 = FBW7/Skp1 (Homo sapiens, UniProt Q969H0); test: Selectivity assay vs other E3s: Fbw7; assay type: biochemical; conditions: for inhibition at 100 µM: value in brackets, read-out: % Inhibition Fbw7 @ (100 μM); for inhibition at 10 µM: read-out: % Inhibition Fbw7 @ 10 μM
# Experimental: as §1, §2
# FBW7 selectivity assays were performed in the same manner except using FBW7/Skp1 as E3 component and cyclin E as the substrate. Blots were probed using anti-cyclin E antibody.
# as §3
# [3] = Table 11, with spread, read-out: FP IC50/μM
# [4] = Tables 1, 3, 7, 8, 10 nM fluorescein-tagged IκB peptide, read-out: FP Assay IC50/μM
# Sequence of FBW7/Skp1 (Q969H0 whole entry, species assumed): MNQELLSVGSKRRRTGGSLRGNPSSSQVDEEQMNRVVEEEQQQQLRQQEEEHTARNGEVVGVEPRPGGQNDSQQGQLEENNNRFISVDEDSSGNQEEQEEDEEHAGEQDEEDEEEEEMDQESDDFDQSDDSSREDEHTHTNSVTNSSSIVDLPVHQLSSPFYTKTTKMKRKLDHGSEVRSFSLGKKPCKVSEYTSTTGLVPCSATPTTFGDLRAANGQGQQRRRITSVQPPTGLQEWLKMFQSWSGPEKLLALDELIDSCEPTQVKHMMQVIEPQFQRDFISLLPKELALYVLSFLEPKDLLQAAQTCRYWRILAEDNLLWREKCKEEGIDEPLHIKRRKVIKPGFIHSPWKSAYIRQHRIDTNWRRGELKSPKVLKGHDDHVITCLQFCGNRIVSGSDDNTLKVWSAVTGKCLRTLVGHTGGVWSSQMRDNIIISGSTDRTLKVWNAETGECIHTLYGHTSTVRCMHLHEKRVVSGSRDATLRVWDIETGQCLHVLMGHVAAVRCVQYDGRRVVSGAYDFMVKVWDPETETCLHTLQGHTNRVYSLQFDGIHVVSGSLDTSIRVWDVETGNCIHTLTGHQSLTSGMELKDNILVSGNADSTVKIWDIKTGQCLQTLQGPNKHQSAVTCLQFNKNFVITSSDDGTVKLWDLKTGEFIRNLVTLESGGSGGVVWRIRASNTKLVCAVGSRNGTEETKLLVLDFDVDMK
# Sequence of FBW7/Skp1 (P63208 whole entry partner, species assumed): as the sequence (P63208 whole entry partner, one chain of several) above
# Sequence of FBW7/Skp1 (Q13616 whole entry partner, species assumed): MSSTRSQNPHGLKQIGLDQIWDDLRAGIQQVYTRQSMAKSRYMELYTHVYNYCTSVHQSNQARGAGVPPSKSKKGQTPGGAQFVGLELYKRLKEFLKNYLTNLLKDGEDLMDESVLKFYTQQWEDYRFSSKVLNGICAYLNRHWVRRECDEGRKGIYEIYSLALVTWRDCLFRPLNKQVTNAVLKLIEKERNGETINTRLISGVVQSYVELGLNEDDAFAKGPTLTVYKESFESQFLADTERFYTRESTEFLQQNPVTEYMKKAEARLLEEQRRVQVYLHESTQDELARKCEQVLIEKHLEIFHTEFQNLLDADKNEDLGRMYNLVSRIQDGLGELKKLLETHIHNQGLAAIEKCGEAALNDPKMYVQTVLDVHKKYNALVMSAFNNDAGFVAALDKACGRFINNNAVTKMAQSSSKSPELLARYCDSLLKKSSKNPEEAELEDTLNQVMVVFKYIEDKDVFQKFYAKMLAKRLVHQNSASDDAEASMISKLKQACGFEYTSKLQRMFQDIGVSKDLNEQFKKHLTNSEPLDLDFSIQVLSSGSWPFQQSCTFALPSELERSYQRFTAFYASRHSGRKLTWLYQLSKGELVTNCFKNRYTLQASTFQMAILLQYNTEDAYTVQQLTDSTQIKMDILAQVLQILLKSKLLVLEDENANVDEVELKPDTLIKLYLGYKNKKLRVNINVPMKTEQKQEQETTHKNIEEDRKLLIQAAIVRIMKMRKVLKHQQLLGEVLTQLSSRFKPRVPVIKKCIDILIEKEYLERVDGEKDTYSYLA
# Sequence of FBW7/Skp1 (P62877 whole entry partner, species assumed): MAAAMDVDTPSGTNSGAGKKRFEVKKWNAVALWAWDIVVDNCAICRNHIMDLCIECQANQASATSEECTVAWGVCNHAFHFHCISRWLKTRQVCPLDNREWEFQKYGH
# Sequence of βTrCP/Skp1 (P63208 whole entry partner, one chain of several): as the sequence (P63208 whole entry partner, one chain of several) above
# Sequence of β-TrCP1/Skp1 (P63208 2-163 partner limits assumed, one chain of several): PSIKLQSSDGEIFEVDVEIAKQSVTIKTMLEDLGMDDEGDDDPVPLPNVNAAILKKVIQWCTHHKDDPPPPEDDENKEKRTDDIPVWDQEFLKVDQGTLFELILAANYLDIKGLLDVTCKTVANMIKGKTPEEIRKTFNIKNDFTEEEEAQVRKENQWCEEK
# Sequence of Skp2 (Q13309 whole entry, species assumed): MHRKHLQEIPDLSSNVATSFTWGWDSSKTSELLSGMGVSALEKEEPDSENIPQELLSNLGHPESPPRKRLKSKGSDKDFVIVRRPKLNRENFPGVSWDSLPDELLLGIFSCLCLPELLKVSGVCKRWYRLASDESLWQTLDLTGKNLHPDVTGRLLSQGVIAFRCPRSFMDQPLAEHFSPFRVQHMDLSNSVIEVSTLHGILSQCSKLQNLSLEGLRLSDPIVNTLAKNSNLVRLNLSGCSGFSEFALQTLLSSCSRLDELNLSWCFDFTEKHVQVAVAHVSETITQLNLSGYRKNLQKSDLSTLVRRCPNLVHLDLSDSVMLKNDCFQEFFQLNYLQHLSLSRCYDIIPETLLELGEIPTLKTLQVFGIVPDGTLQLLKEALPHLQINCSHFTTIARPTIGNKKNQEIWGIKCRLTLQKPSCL
# Sequence of Skp2 (P63208 whole entry partner, species assumed): as the sequence (P63208 whole entry partner, one chain of several) above
# Sequence of Skp2 (Q13616 whole entry partner, species assumed): as the sequence (Q13616 whole entry partner, species assumed) above
# Sequence of Skp2 (P62877 whole entry partner, species assumed): as the sequence (P62877 whole entry partner, species assumed) above
Structure (SMILES),IC50 (βTrCP [1]; [3]),IC50 (βTrCP [1]; [4]),Kd (βTrCP/Skp1),Biotin Pulldown Assay 10 μM (βTrCP [2]),Biotin Pulldown Assay 100 μM (βTrCP [2]),Ub Assay 10 μM (β-TrCP1/Skp1),Ub Assay 100 μM (β-TrCP1/Skp1),inhibition at 100 µM (Skp2),inhibition at 10 µM (Skp2),inhibition at 100 µM (FBW7/Skp1),inhibition at 10 µM (FBW7/Skp1)
"NC(=O)[C@H](CCC(=O)O)NC(=O)[C@H](Cc1ccccc1)NC(=O)[C@H](Cc1ccc(O)cc1)NC(=O)CNC(=O)[C@H](CCC(=O)O)NC(=O)CCC(=O)O [UBP007, Suc-EGYFE-NH2] (Suc-EGYFE-NH2)",1.04 ± 0.101 µM,1 µM,0.537 ± 0.117 µM,no effect/,inhibits,reduces/,inhibits,28%,11%,0%,0%
"CCOC(=O)N[C@H](CC(=O)O)C(=O)N[C@@H](CCC(=O)O)C(=O)NCC(=O)N[C@@H](Cc1cccc(F)c1)C(=O)N[C@@H](Cc1c[nH]c2ccccc12)C(=O)N[C@@H](CCC(=O)O)C(N)=O [UBP023, EtO(CO)-dEGF(3F)WE-NH2] (Ethoxycarbonyl-[dD]EG[Phe(3-F)]WE-NH2)",0.045 ± 0.005 µM,,0.034 ± 0.017 µM,reduces/,inhibits,inhibits/,inhibits,4%,4%,12%,0%
"NC(=O)[C@H](CCC(=O)O)NC(=O)[C@H](Cc1ccc([N+](=O)[O-])cc1)NC(=O)[C@H](Cc1ccccc1F)NC(=O)CNC(=O)[C@H](CCC(=O)O)NC(=O)CCC(=O)O [UBP003, Suc-EGF(2F)F(4NO2)E-NH2] (Suc-EG[Phe(2-F)][Phe(4-NO2)]E-NH2)",4.91 ± 0.702 µM,,8 ± 0.26 µM,no effect/,reduces,no effect/,inhibits,11%,8%,0%,0%
"NC(=O)[C@H](CCC(=O)O)NC(=O)[C@H](Cc1c[nH]c2ccccc12)NC(=O)[C@H](Cc1cccc(F)c1)NC(=O)CNC(=O)[C@H](CCC(=O)O)NC(=O)CCC(=O)O [UBP014, Suc-EGF(3F)WE-NH2] (Suc-EG[Phe(3-F)]WE-NH2)",0.095 ± 0.009 µM,0.095 µM,0.455 ± 0.03 µM,reduces/,inhibits,reduces/,inhibits,6%,5%,0%,0%
"CC[C@H](C)[C@H](NC(=O)CNC(=O)[C@H](COP(=O)(O)O)NC(=O)[C@@H](N)CC(=O)O)C(=O)N[C@@H](Cc1ccccc1)C(=O)N[C@@H](CCC(=O)O)C(N)=O [UBP001, DpSGIFE-NH2] (H-D[pS]GIFE-NH2)",1.24 ± 0.145 µM,,1.48 ± 0.286 µM,reduces/,inhibits,reduces/,inhibits,13%,8%,0%,0%
"COc1ccc(C[C@H](NC(=O)[C@H](Cc2ccccc2F)NC(=O)CNC(=O)[C@H](CCC(=O)O)NC(=O)CCC(=O)O)C(=O)N[C@@H](CCC(=O)O)C(N)=O)cc1 [UBP006, Suc-EGF(2F)Y(Me)E-NH2] (Suc-EG[Phe(2-F)]Y(Me)E-NH2)",3.28 ± 0.5 µM,3.2 µM,4.4 ± 0.82 µM,no effect/,reduces,no effect/,inhibits,4%,0%,4%,0%
"NC(=O)[C@H](CCC(=O)O)NC(=O)[C@H](Cc1ccc([N+](=O)[O-])cc1)NC(=O)[C@H](Cc1ccc(F)cc1)NC(=O)CNC(=O)[C@H](CCC(=O)O)NC(=O)CCC(=O)O [UBP005, Suc-EGF(4F)F(4NO2)E-NH2] (Suc-EG[Phe(4-F)][Phe(4-NO2)]E-NH2)",1.21 ± 0.093 µM,,0.507 ± 0.267 µM,no effect/,inhibits,reduces/,inhibits,0%,0%,0%,0%
